Where “and” joins values, the source holds several entries; their conditions need not be identical. Equal entries are not always repeated. Inconclusive results are not listed.

The test relates to BDF1 mice, colon carcinoma 38 sc, T/C %. The test is described as follows: NCI In Vivo Anticancer Drug Screen. Data for tumor model Colon Carcinoma 38 (subcutaneous) in B6D2F1 (BDF1) mice. The settings on record: endpoint: median tumor weight (est.), higher = larger tumour. A digest of the protocol:
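Mice with transplanted tumors are treated with compound or vehicle. Survival or tumor size is then measured in both groups. The ratio of treated to control gives the reported figure.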

[1] abbreviates: dose: 12.5 mg/kg/injection, schedule: Q07DX003 (ip), vehicle: Klucel (hydroxypropylcellulose) (HPC).
Setting [2] is: dose: 25.0 mg/kg/injection, schedule: Q07DX003 (ip), vehicle: Klucel (hydroxypropylcellulose) (HPC).
Setting [3] is: dose: 100.0 mg/kg/injection, schedule: Q07DX002 (ip), vehicle: saline with Tween-80.
[4] abbreviates: dose: 200.0 mg/kg/injection, schedule: Q07DX002 (ip), vehicle: saline with Tween-80.
[5] abbreviates: dose: 400.0 mg/kg/injection, schedule: Q07DX002 (ip), vehicle: saline with Tween-80.
Where [6] appears, read: dose: 6.25 mg/kg/injection, schedule: Q07DX002 (ip), vehicle: saline.
Where [7] appears, read: dose: 12.5 mg/kg/injection, schedule: Q07DX002 (ip), vehicle: saline.
The mark [8] stands for this setting: dose: 25.0 mg/kg/injection, schedule: Q07DX002 (ip), vehicle: saline.
[9] abbreviates: dose: 25.0 mg/kg/injection, schedule: Q07DX002 (ip), vehicle: saline with Tween-80.
Where [10] appears, read: dose: 50.0 mg/kg/injection, schedule: Q07DX002 (ip), vehicle: saline with Tween-80.
Setting [11] is: dose: 6.25 mg/kg/injection, schedule: Q07DX002 (ip), vehicle: saline with Tween-80.
Where [12] appears, read: dose: 12.5 mg/kg/injection, schedule: Q07DX002 (ip), vehicle: saline with Tween-80.

Turning to `CC(=O)OCC(=O)[C@@]12OC(C)(C)O[C@@H]1C[C@H]1[C@@H]3CC(C=O)=C4C=C(OCCCl)CC[C@]4(C)[C@@]3(F)[C@@H](O)C[C@@]12C`, the T/C was 86 % of control (dose: 12.5 mg/kg/injection, schedule: Q07DX002 (ip), vehicle: Klucel (hydroxypropylcellulose) (HPC)); 62 % of control and 76 % of control under setting [1]; 58 % of control (dose: 25.0 mg/kg/injection, schedule: Q07DX002 (ip), vehicle: Klucel (hydroxypropylcellulose) (HPC)); 33 % of control and 57 % of control under setting [2]; 86 % of control (dose: 50.0 mg/kg/injection, schedule: Q07DX002 (ip), vehicle: Klucel (hydroxypropylcellulose) (HPC)); 94 % of control (dose: 100.0 mg/kg/injection, schedule: Q07DX002 (ip), vehicle: Klucel (hydroxypropylcellulose) (HPC)). The T/C runs as follows: (dose: 100.0 mg/kg/injection, schedule: Q07DX003 (ip), vehicle: Klucel (hydroxypropylcellulose) (HPC)) 57 % of control; (dose: 200.0 mg/kg/injection, schedule: Q07DX002 (ip), vehicle: Klucel (hydroxypropylcellulose) (HPC)) 54 % of control; (dose: 200.0 mg/kg/injection, schedule: Q07DX003 (ip), vehicle: Klucel (hydroxypropylcellulose) (HPC)) 48 % of control.
Take `CC(=O)NC(Cc1ccc(F)cc1)C(=O)O` (stereo not drawn): the T/C by setting is: under setting [3], 84 % of control; under setting [4], 83 % of control; under setting [5], 77 % of control; (dose: 800.0 mg/kg/injection, schedule: Q07DX002 (ip), vehicle: saline with Tween-80) 77 % of control.
Turning to `Cc1cn(C2CC(F)C(CO)O2)c(=O)[nH]c1=O` (stereo not drawn), the T/C is 204 % of control (dose: 50.0 mg/kg/injection, schedule: Q01DX001 (ip), vehicle: Klucel (hydroxypropylcellulose) (HPC)); 193 % of control (dose: 100.0 mg/kg/injection, schedule: Q01DX001 (ip), vehicle: Klucel (hydroxypropylcellulose) (HPC)); 182 % of control (dose: 200.0 mg/kg/injection, schedule: Q01DX001 (ip), vehicle: Klucel (hydroxypropylcellulose) (HPC)); 119 % of control (dose: 200.0 mg/kg/injection, schedule: Q07DX002 (ip), vehicle: saline); 165 % of control (dose: 400.0 mg/kg/injection, schedule: Q01DX001 (ip), vehicle: Klucel (hydroxypropylcellulose) (HPC)); 103 % of control (dose: 400.0 mg/kg/injection, schedule: Q07DX002 (ip), vehicle: saline). For the same compound, the T/C (dose: 800.0 mg/kg/injection, schedule: Q07DX002 (ip), vehicle: saline) was 117 % of control and the T/C (dose: 1600.0 mg/kg/injection, schedule: Q07DX002 (ip), vehicle: saline) was 100 % of control.
On to `C=C(C)[C@H]1CN[C@H](C(=O)O)[C@H]1CC(=O)O`, for which the T/C reads like this: (dose: 0.62 mg/kg/injection, schedule: Q07DX002 (ip), vehicle: saline) 58 % of control; (dose: 1.25 mg/kg/injection, schedule: Q07DX002 (ip), vehicle: saline) 80 % of control; (dose: 2.5 mg/kg/injection, schedule: Q07DX002 (ip), vehicle: saline) 92 % of control; (dose: 5.0 mg/kg/injection, schedule: Q07DX002 (ip), vehicle: saline) 95 % of control; under setting [6], 90 % of control; (dose: 10.0 mg/kg/injection, schedule: Q07DX002 (ip), vehicle: saline) 79 % of control. Besides, the T/C was 73 % of control under setting [7]; 90 % of control (dose: 20.0 mg/kg/injection, schedule: Q07DX002 (ip), vehicle: saline); 90 % of control under setting [8].
On to `CCCCC(=O)OCC(=O)[C@]1(O)Cc2c(O)c3c(c(O)c2[C@@H](OC2CC(NC(=O)C(F)(F)F)C(O)C(C)O2)C1)C(=O)c1c(OC)cccc1C3=O` (stereo partly drawn), for which the T/C runs as follows: (dose: 25.0 mg/kg/injection, schedule: Q07DX002 (ip), vehicle: water) 168 % of control; (dose: 100.0 mg/kg/injection, schedule: Q07DX002 (ip), vehicle: water) 89 % of control; (dose: 200.0 mg/kg/injection, schedule: Q07DX002 (ip), vehicle: water) 106 % of control; (dose: 400.0 mg/kg/injection, schedule: Q07DX002 (ip), vehicle: water) 71 % of control; (dose: 800.0 mg/kg/injection, schedule: Q07DX002 (ip), vehicle: water) 45 % of control.
As for `CCOC(=O)CC(SP(=S)(OC)OC)C(=O)OCC` (stereo not drawn), the T/C was 114 % of control (dose: 50.0 mg/kg/injection, schedule: Q07DX002 (ip), vehicle: suspension in saline); 67 % of control (dose: 56.0 mg/kg/injection, schedule: Q07DX002 (ip), vehicle: saline with Tween-80); 119 % of control (dose: 100.0 mg/kg/injection, schedule: Q07DX002 (ip), vehicle: suspension in saline); 102 % of control (dose: 112.0 mg/kg/injection, schedule: Q07DX002 (ip), vehicle: saline with Tween-80); 49 % of control (dose: 200.0 mg/kg/injection, schedule: Q07DX002 (ip), vehicle: suspension in saline); 88 % of control (dose: 225.0 mg/kg/injection, schedule: Q07DX002 (ip), vehicle: saline with Tween-80). In addition, the T/C (dose: 400.0 mg/kg/injection, schedule: Q07DX002 (ip), vehicle: suspension in saline) is 69 % of control.
Take `CC[PH+](CC)CC[S-].CC[PH+](CC)CC[S-].[Au+].[Au+]`: the T/C runs as follows: (dose: 5.0 mg/kg/injection, schedule: Q07DX002 (ip), vehicle: Klucel (hydroxypropylcellulose) (HPC)) 67 % of control; (dose: 10.0 mg/kg/injection, schedule: Q07DX002 (ip), vehicle: Klucel (hydroxypropylcellulose) (HPC)) 89 % of control; (dose: 20.0 mg/kg/injection, schedule: Q07DX002 (ip), vehicle: Klucel (hydroxypropylcellulose) (HPC)) 78 % of control; (dose: 40.0 mg/kg/injection, schedule: Q07DX002 (ip), vehicle: Klucel (hydroxypropylcellulose) (HPC)) 57 % of control.
On to `CC(=O)Nc1ccc(Nc2ccc(C(=C3C=CC(=[N+](C)CCC#N)C=C3)c3ccc(N(C)CCC#N)cc3)cc2)cc1`, for which the T/C runs as follows: under setting [9], 77 % of control and 93 % of control; under setting [10], 91 % of control; under setting [3], 52 % of control.
Turning to `CN1CCN(Cc2nc3cccc4c3c([n+]2[O-])-c2ccccc2-4)CC1`, the T/C is, setting by setting: (dose: 3.12 mg/kg/injection, schedule: Q07DX002 (ip), vehicle: saline with Tween-80) 72 % of control; under setting [11], 58 % of control; under setting [12], 81 % of control and 98 % of control and 106 % of control; under setting [4], 65 % of control and 75 % of control; under setting [5], 79 % of control.
For `O=[N+]([O-])c1ccc(Sc2ccncn2)c([N+](=O)[O-])c1`, the T/C reads like this: under setting [12], 51 % of control; under setting [9], 64 % of control and 74 % of control; under setting [3], 43 % of control and 44 % of control.
For the compound `O=C(CCCN1CCC(O)(c2cccc(C(F)(F)F)c2)CC1)c1ccc(F)cc1`, the T/C (dose: 6.25 mg/kg/injection, schedule: Q07DX003 (ip), vehicle: Klucel (hydroxypropylcellulose) (HPC)) was 78 % of control and 80 % of control; the T/C under setting [1] is 84 % of control and 95 % of control; the T/C under setting [2] was 113 % of control and 93 % of control; the T/C (dose: 50.0 mg/kg/injection, schedule: Q07DX003 (ip), vehicle: Klucel (hydroxypropylcellulose) (HPC)) is 100 % of control.
Consider `CC(C)=CCC/C(C)=C/COc1ccc(/C=C2/C(=O)N(O)[C@@H](C)C(=O)N2O)cc1`, for which the T/C is 262 % of control under setting [6]; 202 % of control under setting [7]; 178 % of control under setting [8]; 154 % of control (dose: 50.0 mg/kg/injection, schedule: Q07DX002 (ip), vehicle: saline); 154 % of control (dose: 100.0 mg/kg/injection, schedule: Q07DX002 (ip), vehicle: saline).
On to `CC1CN1C(=O)NCCCCCCNC(=O)N1CC1C` (stereo not drawn), for which the T/C is 73 % of control and 90 % of control (dose: 5.0 mg/kg/injection, schedule: Q07DX003 (ip), vehicle: Klucel (hydroxypropylcellulose) (HPC)); 15 % of control and 34 % of control (dose: 20.0 mg/kg/injection, schedule: Q07DX003 (ip), vehicle: Klucel (hydroxypropylcellulose) (HPC)); 34 % of control (dose: 40.0 mg/kg/injection, schedule: Q07DX003 (ip), vehicle: Klucel (hydroxypropylcellulose) (HPC)).
With `O=S1(=O)C=C(c2ccccc2)C(c2ccccc2)=C1`, the T/C reads like this: under setting [11], 112 % of control and 97 % of control; under setting [10], 62 % of control and 80 % of control; under setting [3], 84 % of control; under setting [4], 88 % of control.

The record behind these values is PubChem BioAssay AID212 (DTP/NCI, 2004).
